Consider four compounds from patent US5773459A, “Urea- and thiourea-type compounds” (Sugen, Inc., priority 1995, dated 1998).

One experiment addresses T1, human EGF receptor (Homo sapiens, UniProt P00533).
T1 construct: expressed in transfected cells; host or cells: NIH3T3 clone C7 (EGFR/C7)
Nature of the experiment: EGFR Whole Cell Kinase Assay (EGFR-3T3 assay). The class given is cell-based. The method, then: Growth assays were carried out using human mammary epithelial SKBR3 (ATCC HTB30) cells (SKBR3 cells over-express HER2), SKOV3 (ATCC HTB77) human ovarian cancer cell line (SKOV3 cells also over-express HER2), A431 cells (A431 cells over-express EGFR) MCF7 human breast carcinoma cells, MCF7 cells overexpressing the HER2 kinase (MCF7-HER2), NIH3T3 cells, and NIH3T3 cells overexpressing the HER2 kinase (3T3-HER2.
EGFR Whole Cell Kinase Assay
EGFR kinase activity (EGFR-3T3 assay) in whole cells was measured as described below:
Coated plates are good for up to 10 days when stored at 4.sunburst.C.
B. On day of use, remove coating buffer and replace with blocking buffer (5% Carnation Instant NonFat Dry Milk in PBS). Incubate the plate, shaking, at room temperature (about 23.sunburst.C to 25.sunburst.C) for 30 minutes. Just prior to use, remove blocking buffer and wash plate 4 times with TBST buffer.
A. EGFR/C7 cell line (Honegger, et al., supra) can be used for this assay.
B. Choose dishes having 80-90% confluence for the experiment.
Trypsinize cells and stop reaction by adding 10% CS DMEM medium. Suspend cells in DMEM medium (10% CS DMEM medium) and centrifuge once at 1000 rpm, and once at room temperature for 5 minutes.
C. Resuspend cells in seeding medium (DMEM, 0.5% bovine serum), and count the cells using trypan blue. Viability above 90% is acceptable. Seed cells in DMEM medium (0.5% bovine serum) at a density of 10,000 cells per well, 100 μl per well, in a 96 well microtiter plate. Incubate seeded cells in 5% CO2 at 37.sunburst.C for about 40 hours.
A. Check seeded cells for contamination using an inverted microscope. Dilute drug stock (10 mg/ml in DMSO) 1:10 in DMEM medium, then transfer 5 μl to a test well for a final drug dilution of 1:200 and a final DMSO concentration of 1%.
Control wells receive DMSO alone. Incubate in 5% CO2 at 37° C. for one hour.
C. Prepare fresh HNTG sufficient for 100 μl per well; and place on ice.
Control wells receive DMEM alone. […]
K. The maximal phosphotyrosine signal is determined by subtracting the value of the negative controls from the positive controls.

The next experiment addresses T2, IGF-1R (Homo sapiens, UniProt P08069).
T2 construct: expressed in transfected cells; host or cells: 3T3/IGF-1R
The experiment in a line: Cellular IGF-1 Receptor ELISA. The class given is cell-based. The protocol: Cellular IGF-1 Receptor ELISA (Version I)
(1). The cell line used in this assay is 3T3/IGF-1R, a cell line which overexpresses IGF-1 Receptor.
(2). 3T3/IGF-1 R is grown in an incubator with 5% CO2 at 37° C. The growth media is DMEM+10% FBS (heat inactivated)+2 mM L-Glutamine.
(3). For ELISA plate coating, the anti-IGF-1 R antibody named 17-69 is used. Antibodies are purified by the Enzymology Lab, SUGEN, Inc.
(10). Insulin-like growth factor-1 from Promega (Cat# G5111).
(2). […] Incubate for 1 day then replace medium to serum-free medium (90/ul) and incubate in 5% CO2 and 37° C. overnight.
2. ELISA Plate Coating and Blocking
(2). Remove the coating solution, and replace with 100 ul Blocking Buffer, and shake for 30 minutes. Remove the blocking buffer and wash the plate just before adding lysate.
(1). The drugs are tested in serum-free condition.
(2). Dilute drug stock (in 100% DMSO) 1:10 with DMEM in 96-well poly-propylene plate, and transfer 10 ul/well of this solution to the cells to achieve final drug dilution 1:100, and final DMSO concentration of 1.0%. Incubate the cells in 5% CO2 at 37° C for 2 hours.
(3). Prepare fresh cell lysis buffer (HNTG HNTG 2 ml EDTA 0.1 ml Na3VO4 0.1 ml Na4P207 0.1 ml H20 7.3 ml HNTG* 10 ml.
(4). After drug incubation for two hours, transfer 10 ul/well of 200 nM IGF-1 Ligand in PBS to the cells (Final Conc=20 nM), and incubate at 5% CO2 at 37° C. for 10 minutes.
(5). Remove media and add 100 ul/well HNTG* and shake for 10 minutes. Look at cells under microscope to see if they are adequately lysed.
(6). Use a 12-channel pipette to scrape the cells from the plate, and homogenize the lysate by repeat aspiration and dispense. Transfer all the lysate to the antibody coated ELISA plate [V.2.(2)], and shake for 1 hour.
(7). Remove the lysate, wash the plate, transfer anti-pTyr (1:3,000 with TBST) 100 ul/well, and shake for 30 minutes.
(7). Remove anti-pTyr, wash the plate, transfer detection antibody (1:3,000 with TBST) 100 ul/well, and shake for 30 minutes.
(8). Remove detection antibody, wash the plate, and transfer fresh ABTS/H2O2 (1.2 ul H2O2 to 10 ml ABTS) 100 ul/well to the plate to start color development.
(9). Measure OD (410 nm) in Dynatec MR5000, which is connected to Ingres.
For orientation: An ELISA detects its analyte on a solid surface through an enzyme-linked reagent.

Where [1] appears, read: EGFR/C7 NIH3T3 cells, EGF stimulated, read-out: ELISA DATA: EGFR.
Where [2] appears, read: 3T3/IGF-1R cells, IGF-1 stimulated, read-out: ELISA DATA: IGF-1R.

Like-named read-outs stand apart in the source and are kept apart here.

T1 sequence (P00533 25-1210): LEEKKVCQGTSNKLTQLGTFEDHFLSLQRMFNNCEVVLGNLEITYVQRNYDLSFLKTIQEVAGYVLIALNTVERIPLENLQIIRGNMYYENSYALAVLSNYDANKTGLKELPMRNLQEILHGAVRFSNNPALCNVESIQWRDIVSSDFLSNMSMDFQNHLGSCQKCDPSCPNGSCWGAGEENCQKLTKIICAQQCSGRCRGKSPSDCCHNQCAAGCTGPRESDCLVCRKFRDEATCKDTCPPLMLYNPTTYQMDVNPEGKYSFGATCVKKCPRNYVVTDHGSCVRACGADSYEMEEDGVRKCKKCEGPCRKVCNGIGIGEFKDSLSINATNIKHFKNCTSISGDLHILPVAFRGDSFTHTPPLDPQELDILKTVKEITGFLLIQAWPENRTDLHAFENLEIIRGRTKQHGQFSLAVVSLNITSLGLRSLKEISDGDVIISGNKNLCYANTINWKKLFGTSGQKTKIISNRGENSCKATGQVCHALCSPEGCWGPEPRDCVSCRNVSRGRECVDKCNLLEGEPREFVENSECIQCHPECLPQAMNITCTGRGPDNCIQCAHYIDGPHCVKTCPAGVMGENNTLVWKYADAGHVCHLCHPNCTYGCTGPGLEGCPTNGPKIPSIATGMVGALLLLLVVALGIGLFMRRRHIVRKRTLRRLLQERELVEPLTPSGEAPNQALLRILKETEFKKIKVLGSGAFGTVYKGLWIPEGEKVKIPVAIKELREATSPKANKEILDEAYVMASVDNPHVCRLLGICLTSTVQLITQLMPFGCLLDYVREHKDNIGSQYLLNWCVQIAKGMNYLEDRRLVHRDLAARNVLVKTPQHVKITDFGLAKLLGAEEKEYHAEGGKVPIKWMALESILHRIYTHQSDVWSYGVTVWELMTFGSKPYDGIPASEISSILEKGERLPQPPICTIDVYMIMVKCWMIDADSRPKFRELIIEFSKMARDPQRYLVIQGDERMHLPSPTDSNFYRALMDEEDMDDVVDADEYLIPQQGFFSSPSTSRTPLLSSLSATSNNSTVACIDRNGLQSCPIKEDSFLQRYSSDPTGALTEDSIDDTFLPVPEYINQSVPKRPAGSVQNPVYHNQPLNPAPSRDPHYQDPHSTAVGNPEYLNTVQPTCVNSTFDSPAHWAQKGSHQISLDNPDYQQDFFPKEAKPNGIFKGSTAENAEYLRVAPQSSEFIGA
T2 sequence (P08069 31-1367): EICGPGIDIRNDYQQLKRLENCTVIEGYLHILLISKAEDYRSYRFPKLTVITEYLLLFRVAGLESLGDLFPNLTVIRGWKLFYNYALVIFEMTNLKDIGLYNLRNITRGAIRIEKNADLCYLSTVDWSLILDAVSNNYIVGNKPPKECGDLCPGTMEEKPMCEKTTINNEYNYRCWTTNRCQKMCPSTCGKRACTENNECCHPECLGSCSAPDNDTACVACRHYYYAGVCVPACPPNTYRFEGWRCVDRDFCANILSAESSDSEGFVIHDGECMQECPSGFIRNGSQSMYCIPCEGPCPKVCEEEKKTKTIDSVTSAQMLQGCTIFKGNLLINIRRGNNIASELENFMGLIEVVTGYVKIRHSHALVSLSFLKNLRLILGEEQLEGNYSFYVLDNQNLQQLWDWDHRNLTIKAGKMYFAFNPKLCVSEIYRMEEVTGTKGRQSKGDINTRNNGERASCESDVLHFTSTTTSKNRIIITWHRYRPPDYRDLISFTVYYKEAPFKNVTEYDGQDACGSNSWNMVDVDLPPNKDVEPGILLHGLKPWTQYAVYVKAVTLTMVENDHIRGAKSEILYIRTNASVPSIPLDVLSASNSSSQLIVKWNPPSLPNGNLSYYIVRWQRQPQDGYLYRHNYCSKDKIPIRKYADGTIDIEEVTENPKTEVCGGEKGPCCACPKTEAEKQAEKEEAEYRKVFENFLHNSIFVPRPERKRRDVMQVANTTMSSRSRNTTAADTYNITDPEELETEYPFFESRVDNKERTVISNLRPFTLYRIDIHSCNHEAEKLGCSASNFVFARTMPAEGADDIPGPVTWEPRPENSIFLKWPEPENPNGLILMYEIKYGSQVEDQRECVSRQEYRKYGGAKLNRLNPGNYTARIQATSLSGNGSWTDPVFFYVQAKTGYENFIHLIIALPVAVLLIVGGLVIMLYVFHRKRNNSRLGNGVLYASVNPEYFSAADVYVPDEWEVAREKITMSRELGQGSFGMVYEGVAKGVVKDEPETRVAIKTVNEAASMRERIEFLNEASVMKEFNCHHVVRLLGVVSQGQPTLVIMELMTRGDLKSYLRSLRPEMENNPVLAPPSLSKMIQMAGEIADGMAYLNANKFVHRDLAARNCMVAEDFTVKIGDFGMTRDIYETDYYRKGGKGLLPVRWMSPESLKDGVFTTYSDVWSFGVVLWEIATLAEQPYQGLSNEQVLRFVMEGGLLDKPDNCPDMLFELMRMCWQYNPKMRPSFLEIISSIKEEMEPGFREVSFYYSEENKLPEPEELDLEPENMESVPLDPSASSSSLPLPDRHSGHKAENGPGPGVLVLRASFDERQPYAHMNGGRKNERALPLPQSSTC

`CC(C)S(=O)(=O)c1csc(NC(=O)Nc2ccc(C(C)(C)C)cc2)c1Cl` [Example Z1, N-[3-Chloro-4-(isopropylsulfonyl)thien-2-yl]-N'-(4-t-butylphenyl)urea]: the IC50 at human EGF receptor (setting [1]) and on IGF-1R (setting [2]) was more than 100 µM each time.
On to `CC(C)S(=O)(=O)c1csc(NC(=O)Nc2cc(C(F)(F)F)cc(C(F)(F)F)c2)c1Cl` [Example Z2, N-[3-Chloro-4-(isopropylsulfonyl)thien-2-yl]-N'-(3,5-di-trifluoromethylphenyl)urea], for which the IC50 at IGF-1R (setting [2]) was more than 100 µM.
With `O=C(Nc1ccc(SC(F)(F)F)cc1)Nc1ccc(Oc2ccc(Cl)cc2Cl)nc1` [Example Z3], the IC50 at human EGF receptor came to 69.5 µM; against IGF-1R, 16.5 µM.
`N#Cc1ccc(NC(=S)Nc2ccc(S(=O)(=O)N3CCCCC3)cc2)cc1` [Example Z4, N-(4-Cyanophenyl)-N'-[4-[(piperid-1-yl)sulfonyl]phenyl]thiourea]: the IC50 on human EGF receptor (setting [1]) and on IGF-1R (setting [2]) was more than 100 µM each time.
